{
  "source": "paper PMC11351453",
  "about": "(BMC Chemistry, 2024)",
  "key": {"[1]": {"system": "A549 cells", "assay": "cells", "type": "cell-based", "details": "Homo sapiens, A549, 72 h, read-out: IC50 A549"}, "[2]": {"system": "H1975 cells", "assay": "AO staining analysis", "type": "cell-based", "details": "T001-10027877 0.5, 1, 2 µM, AZD9291 1 µM"}},
  "data": [
    {"smiles": "C=CC(=O)Nc1cc(Nc2nccc(-c3cn(C)c4ccccc34)n2)c(OC)cc1N(C)CCN(C)C", "note": "[AZD9291]", "values": [
      {"measurement": "IC50", "setting": "[1]", "value": 4.95, "unit": "µM"},
      {"measurement": "cell morphology / induction of apoptosis (AO staining)", "setting": "[2]", "value": "induced significant shrinkage of the cell membrane"}
    ]}
  ]
}
